This experiment concerns the target T1, Gal4/hFXR fusion protein (Homo sapiens, UniProt Q96RI1).
T1 sequence (Q96RI1 262-486 limits assumed): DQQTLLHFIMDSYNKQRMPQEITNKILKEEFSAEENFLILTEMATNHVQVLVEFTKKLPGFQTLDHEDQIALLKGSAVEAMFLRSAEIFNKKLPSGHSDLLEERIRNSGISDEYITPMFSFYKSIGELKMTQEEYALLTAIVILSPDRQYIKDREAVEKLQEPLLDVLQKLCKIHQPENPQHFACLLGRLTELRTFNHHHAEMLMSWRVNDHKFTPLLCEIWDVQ
Kind of experiment: Gal4/hFXR fusion protein agonist activity in human 293 cells (luciferase reporter). Type of experiment: cell-based. Particulars: Human 293 stable clone 2 expressing Gal4/hFXR, 24 hours incubation. As for the experimental part:
Characterization of Compounds for Gal4/hFXR Fusion Protein Agonist Activity in Human 293 Cells
• 1. Compounds to be tested are prepared as 2× stocks in assay medium. • 2. […] The supernatant is removed and the cells are resuspended in 1 ml assay medium. The cells are counted and diluted in assay medium to 200,000 cells per ml. The cells are then plated at 10,000 cells per well in Culturplate-96 plates in 50 μL assay medium. The cells are incubated at 37° C. for approximately 1 hour. • 3. […] All assays include 1 uM GW4064 as a reference standard. • 4. Cells are incubated for 24 hours at 37° C.
• 5. The medium is removed, and the cells are lysed in 25 uL lysis buffer (Promega, E3971). • 6. The plates are analyzed for luciferase activity with luciferase assay reagent (Promega E1483). Plates are read on Victor^3V instrument using the protocol “Shuguang Luciferase assay” (dispense volume=100 uL, plate type=“Packard Viewplate”, measurement height=8 mm from bottom of plate, 5 second read per well).
• 1. For agonist single point screening, data are analyzed in Excel. Each compound is tested in triplicate. The fold stimulation of each compound is calculated as RLUcpd/RLUbkgd. • 2. Comparison to GW4064 is made by the equation (RLUcpd/RLUbkgd)/(RLUGW4064/RLUbkgd) • 3. For agonist potency determinations, statistical analysis of the data is performed using a customized Excel/SAS program.
(In general: In a reporter assay the amount or activity of a reporter protein is the signal.)

For five molecules, EC50 results are on record in patent publication US20090137554A1, “1,4,5,6-TETRAHYDRO -PYRROLO[2,3-d]AZEPINES AND -IMIDAZO[4,5-d]AZEPINES AS MODULATORS OF NUCLEAR RECEPTOR ACTIVITY” (Wyeth, priority 2007, published 2009).

pEC50: −log10 of the molar value.

Regarding `CC(C)OC(=O)C1=CN(C(=O)c2ccc(F)c(F)c2)CC(C)(C)c2cc(C#N)[nH]c21` [Example 1, iso-Propyl 2-cyano-6-(3,4-difluorobenzoyl)-4,4-dimethyl-1,4,5,6-tetrahydropyrrolo[2,3-d]azepine-8-carboxylate], the pEC50 is 8.28.
With `CC(C)OC(=O)C1=CN(C(=O)c2ccc(F)c(F)c2)CC2(CCOCC2)c2cc(C#N)[nH]c21` [Example 10, iso-Propyl 2′-cyano-6′-(3,4-difluorobenzoyl)-2,3,5,5′,6,6′-hexahydro-1′H-spiro[pyran-4,4′-pyrrolo[2,3-d]azepine]-8′carboxylate], the negative-log EC50 (pEC50) is 7.07.
As to `CC(C)OC(=O)C1=CN(C(=O)C2CCOCC2)CC(C)(C)c2cc(C#N)[nH]c21` [Example 9, iso-Propyl 2-cyano-4,4-dimethyl-6-(tetrahydro-2H-pyran-4-ylcarbonyl)-1,4,5,6-tetrahydropyrrolo[2,3-d]azepine-8-carboxylate], the negative logarithm of the EC50 (pEC50) is 8.05.
Molecule `CC(C)OC(=O)C1=CN(C(=O)c2cccs2)CC(C)(C)c2cc(C#N)[nH]c21` [Example 7, iso-Propyl 2-cyano-4,4-dimethyl-6-(2-thienylcarbonyl)-1,4,5,6-tetrahydropyrrolo[2,3-d]azepine-8-carboxylate] showed a negative logarithm of the EC50 (pEC50) of 7.66.
With `CC(C)OC(=O)C1=CN(C(=O)c2cccc(C(F)(F)F)c2)CC(C)(C)c2cc(C#N)[nH]c21` [Example 8, iso-Propyl 2-cyano-4,4-dimethyl-6-[3-(trifluoromethyl)benzoyl]-1,4,5,6-tetrahydropyrrolo[2,3-d]azepine-8-carboxylate], the pEC50 is 8.10.

In general, pEC50 refers to −log10 of the EC50, conventionally taken in molar units.
